This is an account of results in US20040152708A1, “Trans-9,10-dehydroepothilone C and D, analogs thereof and methods of making the same” (priority 2002, published 2004).

The structures appear in SMILES notation. In brackets after ≈: the same amount, converted by molar mass. Bounds are passed on as bounds.

For data set [1], the target named is T1, CYP3A4 (Homo sapiens, UniProt P08684).
T1 construct: purchased BD GenTest, Woburn, Mass
Put plainly: Cytochrome P450 inhibition (BD GenTest kit, BFC substrate), CYP3A4. Format: in vitro ADME. From the text: Following the procedure of Examples 39 (when R=methyl) and 42 (when R=CF3), the additional compounds shown in Table 2 were made by replacing (2-(tert-butyldimethyl-silyloxy)-methylthiazol-4-yl)methyltri-n-butyl-phosphonium chloride with the corresponding phosphonium chloride. Cytotoxicity data (Table 2) was obtained as described in Example 48. Cytochrome P450 inhibition data (Table 3) was obtained using the initial rate method against BFC substrate.
Cytochrome P450 inhibition measurements were performed using a commercially-available kit (BD GenTest, Woburn, Mass.), using BFC as substrate against CYP3A4.

Data set [2] is described as follows: Compound solubility in phosphate-buffered saline. In kind it is physicochemical. As to conditions: aqueous buffer, kinetic from dmso stock; 5 μL of 20 mg/mL DMSO stock in 95 μL phosphate-buffered saline, 0.45 micron filter, HPLC. The protocol: Compound solubility was determined as follows: 5 μL of stock solution (at 20 mg/mL in DMSO) was added to 95 μL of phosphate-buffered saline. After being vortexed for about 10 seconds, the solution/suspension was filtered through a 0.45 micron filter and the amount of analyte was quantitated by HPLC. Solubilities (mg/mL) determined were as follows: epothilone D, <0.06; trans-9,10-dehydroepothilone D, <0.06; 21-OH-26-F3-trans-9,10-dehydroepothilone D, 0.1; 21-amino-trans-9,10-dehydroepothilone D, >0.6; 21-amino-26-F3-trans-9,10-dehydroepothilone D, >0.6; 26-F3-trans-9,10-dehydroepothilone D, <0.06; 21-OH-trans-9,10-dehydroepothilone D, 0.1; KOSN 1635, <0.02; KOSN 1632, 0.12.

The nature of data set [3]: Half-life in mouse plasma. As for the experimental part: […] At Time Zero, aliquotted 75 μl from each sample and added 150 μl of acetonitrile. Centrifuged the white precipitate at 13500 rpm for 3 minutes. Transferred all the clear supernatant into another microcentrifuge tube and repeated the centrifuging step (13500 rpm/3 min). Carefully pipetted 150 μl of the clear supernatant into labeled HPLC sample tubes and tried to avoid pipetting any protein pellets. The samples were analyzed by HPLC to measure remaining compound at each time point by comparison with authentic standards.

Data set [4] deals with Human breast carcinoma cell line MCF-7. Kind of data set: SRB cytotoxicity assay, MCF-7. Format: cell-based. The conditions noted are these: Homo sapiens, MCF7, 72 h; Table 1; 3 days, SRB; read-out: IC50 MCF-7. The protocol: (§1) Compounds of the invention may be screened for cytotoxicity using conventional assays well known to those skilled in the art. For example, cytotoxicity of the compounds may be determined by the SRB assay as disclosed in Skehan et al., J. Natl. Cancer Inst. 82:1107-1112 (1990), which is incorporated herein by reference. In the SRB assay, the following cultured cells are trypsinized, counted and diluted to the following concentrations per 100 μl with growth medium: MCF-7, 5000; NCI/ADR-Res, 7500; NCI-H460, 5000; A549, 5000; Skov3, 7500; and SF-268, 7500. The cells are seeded at 100 μl/well in 96-well microtiter plates. Twenty-four hours later, 100 μl of a test epothilone compound of the invention (ranging in concentration from 1000 nM to 0.001 nM diluted in growth medium) is added to each well. After incubation, with the compound for a period of days, the cells are fixed with 100 μl of 10% trichloroacetic acid (“TCA”) at 4 degrees for 1 hour, and stained with 0.2% sulforhodamine B (SRB)/1% acetic acid, and the bound SRB is then extracted with 200 μl of 10 mM Tris base. The amount of bound dye is determined by OD 515 nm, which correlates to the total cellular protein contents. The data is analyzed using standard statistical methodologies (such as those available with the software sold as KALEIDA GRAPH® by Synergy Software of Reading, Pa.) and the IC50s are calculated.
(§2) Human breast carcinoma cell line MCF-7, multi-drug resistant breast carcinoma cell line NCI/ADR, were obtained from the National Cancer Institute. Human non-small cell lung cancer cell line A549 and human ovarian cancer cell line SKOV-3 were obtained from American Type Culture Collection (Manassas, Va.). All cell lines were maintained in RPMI-1640 medium (Gibco/BRL, Rockville, Md.) supplemented with 2 mM L-glutamine, 25 mM HEPES and 10% FBS (Hyclone, Logan, Utah). Cells were maintained in a humidified incubator at 37° C. in 5% CO2.
(§3) Tumor cells were seeded in 100 μl at 5000 (MCF-7), 7500 (NCI/ADR), 5000 (A549) and 7500 (SKOV3) cells per well in 96-well plates. Cells were allowed to adhere for 24 hours. Each compound ranging from 0.001 to 1000 nM in 100 μl was added to cells in duplicate wells. After 3 days, cells were fixed at 4° C. for 1 hour with 10% trichloroacetic acid and then stained with 0.2% sulforhodamine B (SRB)/1% acetic acid for 20 minutes at room temperature. The unbound dye was rinsed away with 1% acetic acid, and the bounded SRB was then extracted with 200 μl of 10 mM Tris base. The absorbance was measured at 515 nm using a 96-well microtiter plate reader (Spectra Max 250, Molecular Devices). The IC50 values were calculated using a KaleidaGraph program. The experiments were performed twice.

A short description of data set [5]: Plasma protein binding (ultrafiltration). Format: in vitro ADME. As to conditions: mouse or human plasma (species not given), 37° C. As for the experimental part:
Plasma protein binding studies were performed as follows. Compounds were dissolved in DMSO, then diluted into either fresh or thawed samples of mouse or human plasma and incubated at 37° C. Time points of 50 μL were mixed with 100 μl of acetonitrile and centrifuged at ˜14000 rpm for 3 minutes. A 100 μL aliquot was removed from the supernatant and set aside for analysis to indicate compound in the total fraction. The remaining supernatant was transferred onto a Microcon ultrafiltration device fitted with a YM10 membrane and centrifuged to separate protein-bound material. A 50 μL aliquot of the protein-free filtrate was mixed with 100 μL of acetonitrile, centrifuged at ˜14000 rpm for 3 minutes, then 100 μL of the supernatant was collected and analyzed to determine the amount of compound not protein bound. The amount of compound in the total sample and in the protein-free fraction were determined by HPLC analysis against authentic standards.

Data set [6] deals with multi-drug resistant breast carcinoma cell line NCI/ADR. Put plainly: SRB cytotoxicity assay, NCI/ADR. In kind it is cell-based, human. As to conditions: Homo sapiens, NCI/ADR-RES, 72 h; Table 1; 3 days, SRB; read-out: IC50 NCI/ADR. The protocol:
as §1, §2, §3
(Sulforhodamine B stains cellular protein and so reports cell mass.)

Data set [7] concerns the target T2, CYP2C19 (Homo sapiens, UniProt P33261).
T2 construct: purchased BD GenTest, Woburn, Mass
Put plainly: Cytochrome P450 inhibition, CYP2C19. In kind it is in vitro ADME. As to conditions: human.

The target of data set [8] is T3, CYP2C9 (Homo sapiens, UniProt P11712).
T3 construct: purchased BD GenTest, Woburn, Mass
T3 sequence (P11712 whole entry): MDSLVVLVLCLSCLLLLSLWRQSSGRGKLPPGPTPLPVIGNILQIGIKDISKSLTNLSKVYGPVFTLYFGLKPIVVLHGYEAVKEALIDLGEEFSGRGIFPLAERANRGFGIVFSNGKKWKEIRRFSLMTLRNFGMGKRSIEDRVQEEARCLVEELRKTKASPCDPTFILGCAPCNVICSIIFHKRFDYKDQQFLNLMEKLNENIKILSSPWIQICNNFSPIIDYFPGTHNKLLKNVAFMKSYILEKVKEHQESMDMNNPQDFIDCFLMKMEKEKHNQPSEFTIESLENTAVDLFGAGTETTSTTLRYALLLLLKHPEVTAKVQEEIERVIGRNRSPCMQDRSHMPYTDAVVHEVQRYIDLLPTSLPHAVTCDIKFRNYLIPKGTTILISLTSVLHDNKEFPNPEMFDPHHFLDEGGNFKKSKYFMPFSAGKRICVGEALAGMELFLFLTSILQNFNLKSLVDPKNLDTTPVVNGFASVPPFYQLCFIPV
Put plainly: Cytochrome P450 inhibition, CYP2C9. Format: in vitro ADME. As to conditions: human.

Data set [9] can be described thus: Half-life in human plasma. The conditions noted are these: fresh human plasma. As for the experimental part: Half-lives of compounds in fresh mouse and human plasma were determined by dissolving the compounds in DMSO and adding aliquots to samples of mouse or human plasma. At Time Zero, aliquotted 75 μl from each sample and added 150 μl of acetonitrile. Centrifuged the white precipitate at 13500 rpm for 3 minutes. Transferred all the clear supernatant into another microcentrifuge tube and repeated the centrifuging step (13500 rpm/3 min). Carefully pipetted 150 μl of the clear supernatant into labeled HPLC sample tubes and tried to avoid pipetting any protein pellets. The samples were analyzed by HPLC to measure remaining compound at each time point by comparison with authentic standards.

Data set [10] deals with Human non-small cell lung cancer cell line A549. Kind of data set: SRB cytotoxicity assay, A549. Format: cell-based. As to conditions: Homo sapiens, A549, 72 h; Table 1; 3 days, SRB; read-out: IC50 A549. As for the experimental part:
as §1, §2, §3

The test system of data set [11] is human ovarian cancer cell line SKOV-3. Kind of data set: SRB cytotoxicity assay, SKOV3. In kind it is cell-based. As to conditions: Homo sapiens, SK-OV-3, 72 h; Table 1; 3 days, SRB; read-out: IC50 SKOV3. The protocol: as §1, §2, §3

T2 sequence (P33261 whole entry): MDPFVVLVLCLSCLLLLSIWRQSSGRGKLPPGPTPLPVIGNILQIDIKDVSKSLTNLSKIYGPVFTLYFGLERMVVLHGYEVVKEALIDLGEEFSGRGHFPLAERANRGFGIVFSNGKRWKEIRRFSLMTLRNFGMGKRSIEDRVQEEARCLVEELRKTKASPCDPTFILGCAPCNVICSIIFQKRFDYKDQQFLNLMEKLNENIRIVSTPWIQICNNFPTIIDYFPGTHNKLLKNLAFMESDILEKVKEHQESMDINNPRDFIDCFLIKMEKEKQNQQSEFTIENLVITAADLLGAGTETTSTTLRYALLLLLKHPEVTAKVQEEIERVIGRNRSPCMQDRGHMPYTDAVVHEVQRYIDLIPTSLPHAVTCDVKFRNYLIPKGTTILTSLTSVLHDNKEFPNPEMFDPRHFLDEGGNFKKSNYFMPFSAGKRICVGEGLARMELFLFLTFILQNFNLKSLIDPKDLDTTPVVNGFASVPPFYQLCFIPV
T1 sequence (P08684 whole entry): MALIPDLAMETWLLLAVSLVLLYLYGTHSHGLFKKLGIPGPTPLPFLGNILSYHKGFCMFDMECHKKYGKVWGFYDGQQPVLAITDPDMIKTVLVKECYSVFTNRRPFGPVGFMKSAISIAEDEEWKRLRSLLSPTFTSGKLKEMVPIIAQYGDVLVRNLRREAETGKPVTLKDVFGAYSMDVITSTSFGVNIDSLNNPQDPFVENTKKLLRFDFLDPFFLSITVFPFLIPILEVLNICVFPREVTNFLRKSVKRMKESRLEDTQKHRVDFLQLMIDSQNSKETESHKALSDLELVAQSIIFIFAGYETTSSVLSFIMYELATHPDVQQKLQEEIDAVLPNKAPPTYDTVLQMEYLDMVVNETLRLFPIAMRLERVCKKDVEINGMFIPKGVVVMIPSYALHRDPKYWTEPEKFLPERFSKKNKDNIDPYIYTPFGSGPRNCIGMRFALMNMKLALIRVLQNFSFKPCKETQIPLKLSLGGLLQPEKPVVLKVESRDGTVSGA

A word on the solubility: it is how much of the substance goes into solution per volume. Broadly, the half-life is the time in which the quantity being followed falls by half. As for `C/C1=C/C[C@@H](/C(C)=C/c2csc(C)n2)OC(=O)C[C@H](O)C(C)(C)C(=O)[C@H](C)[C@@H](O)[C@@H](C)/C=C/C1` (relative stereo) [9,10-dehydroepothilone D, trans-9,10-dehydroepothilone D], the IC50 in data set [1] worked out at 1600 nM; in data set [4], 2 nM; in [6], 6.2 nM; in data set [7], 2000 nM; in data set [8], 10800 nM; in data set [10] it was 4.7 nM. For the same compound, the IC50 in [11] is 6.2 nM. This compound also had a solubility in data set [2] of less than 60 µg/mL. Also, the figures for the half-life in data set [3] (frozen mouse plasma) and in data set [9] were 0.783 h and greater than 24 h, respectively. The “percentage of compound protein bound” value in data set [5] was 96.6%.
As to `C/C(=C\c1csc(CO)n1)[C@@H]1C/C=C(/C(F)(F)F)C/C=C/[C@H](C)[C@H](O)[C@@H](C)C(=O)C(C)(C)[C@@H](O)CC(=O)O1` [21-hydroxy-9,10-dehydro-26-trifluoroepothilone D], the IC50 in data set [1] is 1000 nM; in [4], 3.6 nM; in [6] it was 65 nM; in [7], 20500 nM; in data set [8] it was 17300 nM; in data set [10] it was 6.1 nM. Moreover, in data set [11], the IC50 is 7.9 nM. This compound also had a solubility in data set [2] of 100 µg/mL (≈ 179 µM). The half-life in data set [3] (fresh mouse plasma) was 6.32 h; in data set [9] it was greater than 24 h. Moreover, the “percentage of compound protein bound” value in [5] is on record as 92.8%.
As to `C/C1=C/C[C@@H](/C(C)=C/c2csc(CO)n2)OC(=O)C[C@H](O)C(C)(C)C(=O)[C@H](C)[C@@H](O)[C@@H](C)/C=C/C1` [21-OH 9,10-dehydroepothilone D, 21-hydroxy-9,10-dehydro-epothilone D], the IC50 in data set [1] is 800 nM; in data set [4], 2.3 nM; in data set [6], 14 nM; in data set [7], 5600 nM; in data set [8] it was 22000 nM; in data set [10], 3.8 nM. Further, the IC50 in data set [11] is 5.7 nM. The solubility in data set [2] was 100 µg/mL (≈ 198 µM). Also, the results for the half-life in data set [3] (fresh mouse plasma) and in data set [9] were 17.6 h and greater than 24 h, respectively. Moreover, the “percentage of compound protein bound” value in data set [5] was determined as 94.2%.
`C/C(=C\c1csc(C)n1)[C@@H]1C/C=C(/C(F)(F)F)C/C=C/[C@H](C)[C@H](O)[C@@H](C)C(=O)C(C)(C)[C@@H](O)CC(=O)O1` (relative stereo) [26-trifluoro 9,10-dehydroepothilone D, 26-trifluoro-trans-9,10-dehydroepothilone D, reference compound]: the IC50 in data set [1] was determined as 2000 nM; in data set [4], 5.3 nM; in [6], 33 nM; in data set [7] it was 3200 nM; in [8], 14400 nM; in data set [10], 11 nM. In addition, the IC50 in data set [11] turned out to be 22 nM. The solubility in [2] was less than 60 µg/mL. For the same compound, the half-life was 2.72 h in data set [3] (fresh mouse plasma) and greater than 24 h in data set [9]. Besides, the “percentage of compound protein bound” value in data set [5] is on record as 96.5%.
For the compound `C/C1=C/C[C@@H](/C(C)=C/c2ccccn2)OC(=O)C[C@H](O)C(C)(C)C(=O)[C@H](C)[C@@H](O)[C@@H](C)/C=C/C1` [KOSN 1632, 17-des(2-methyl-4-thiazolyl)-17-(2-pyridyl)-9,10-dehydropeothilone D], the IC50 is 2520 nM in data set [1]; 0.87 nM in data set [4]; 4.6 nM in data set [6]; 3050 nM in data set [7]; 15000 nM in data set [8]; 3.3 nM in data set [10]. The IC50 in [11] came out at 4.4 nM. Further, the solubility in [2] was 120 µg/mL (≈ 256 µM). Further, the half-life in data set [3] (fresh mouse plasma) was 0.467 h; in [9], greater than 24 h. Besides, the “percentage of compound protein bound” value in data set [5] came out at 89.4%.
As to `C/C1=C/C[C@@H](/C(C)=C/c2csc(CN)n2)OC(=O)C[C@H](O)C(C)(C)C(=O)[C@H](C)[C@@H](O)[C@@H](C)/C=C/C1` [21-NH2 9,10-dehydroepothilone D, 21-amino-9,10-dehydro-epothilone D], the IC50 in data set [1] was 610 nM; in data set [4], 3.2 nM; in [6] it was 25 nM; in data set [7] it was 630 nM; in data set [8], 830 nM; in data set [10], 5.9 nM. The IC50 in data set [11] was found to be 5.7 nM. In data set [2], this compound had a solubility greater than 600 µg/mL. Further, the half-life in data set [3] (fresh mouse plasma) was 0.983 h; in data set [9], greater than 24 h. In data set [5], the “percentage of compound protein bound” value is reported as 89.5%.
Consider `C/C1=C/C[C@@H](/C(C)=C/c2csc(C)n2)OC(=O)C[C@H](O)C(C)(C)C(=O)[C@H](C)[C@@H](O)[C@@H](C)CCC1` [Epothilone D, Desoxyepothilone B, reference compound], for which the IC50 in data set [1] is 2400 nM; in [4], 6.8 nM; in data set [6], 23 nM; in data set [7] it was 1600 to 3400 nM; in [8] it was 9000 to 12000 nM; in data set [10], 25 nM. The IC50 in data set [11] is 39 nM. In data set [2], the solubility was less than 60 µg/mL. Also, the half-life in [3] (fresh mouse plasma) is 0.817 h; in data set [9] it was greater than 24 h. The “percentage of compound protein bound” value in data set [5] was 98.5%.
